In PMC3961306, “Comparison of the Cancer Gene Targeting and Biochemical Selectivities of All Targeted Kinase Inhibitors Approved for Clinical Use” (PLoS ONE, 2014):

How the values were obtained:
Test in all cases: Kinase profiling in a biochemical assay panel (mobility shift assays and ELISA), %-inhibition at 1 μM; selectivity entropy
[1] = target: T1, panel of more than 300 wild-type and mutant kinases (313 kinase panel) (Homo sapiens, UniProt P46734)
T1 sequence (P46734 1-347): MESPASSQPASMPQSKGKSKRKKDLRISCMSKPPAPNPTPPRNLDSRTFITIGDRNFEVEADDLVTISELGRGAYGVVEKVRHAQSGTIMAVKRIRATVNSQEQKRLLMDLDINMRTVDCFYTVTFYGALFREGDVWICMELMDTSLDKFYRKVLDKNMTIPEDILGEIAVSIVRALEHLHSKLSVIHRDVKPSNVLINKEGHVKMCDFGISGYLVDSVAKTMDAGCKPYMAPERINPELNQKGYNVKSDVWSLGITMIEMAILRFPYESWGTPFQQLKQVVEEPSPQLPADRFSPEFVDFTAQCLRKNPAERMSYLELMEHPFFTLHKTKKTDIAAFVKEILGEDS

[2] = target: panel of more than 300 wild-type and mutant kinases (313 kinase panel) (Homo sapiens, UniProt P10721, V654A); settings: kinase KIT(V654A); compound at 1 μM
[3] = target: panel of more than 300 wild-type and mutant kinases (313 kinase panel) (Homo sapiens, UniProt P08581)
[4] = target: panel of more than 300 wild-type and mutant kinases (313 kinase panel) (Homo sapiens, UniProt Q02763); settings: kinase TIE2; 1 μM
[5] = target: panel of more than 300 wild-type and mutant kinases (313 kinase panel) (Homo sapiens, UniProt Q96SB4); settings: kinase SRPK1; 1 μM
[6] = target: T2, panel of more than 300 wild-type and mutant kinases (313 kinase panel) (Homo sapiens, UniProt Q8TF76); settings: kinase Haspin; compound at 1 μM
T2 sequence (Q8TF76 1-798): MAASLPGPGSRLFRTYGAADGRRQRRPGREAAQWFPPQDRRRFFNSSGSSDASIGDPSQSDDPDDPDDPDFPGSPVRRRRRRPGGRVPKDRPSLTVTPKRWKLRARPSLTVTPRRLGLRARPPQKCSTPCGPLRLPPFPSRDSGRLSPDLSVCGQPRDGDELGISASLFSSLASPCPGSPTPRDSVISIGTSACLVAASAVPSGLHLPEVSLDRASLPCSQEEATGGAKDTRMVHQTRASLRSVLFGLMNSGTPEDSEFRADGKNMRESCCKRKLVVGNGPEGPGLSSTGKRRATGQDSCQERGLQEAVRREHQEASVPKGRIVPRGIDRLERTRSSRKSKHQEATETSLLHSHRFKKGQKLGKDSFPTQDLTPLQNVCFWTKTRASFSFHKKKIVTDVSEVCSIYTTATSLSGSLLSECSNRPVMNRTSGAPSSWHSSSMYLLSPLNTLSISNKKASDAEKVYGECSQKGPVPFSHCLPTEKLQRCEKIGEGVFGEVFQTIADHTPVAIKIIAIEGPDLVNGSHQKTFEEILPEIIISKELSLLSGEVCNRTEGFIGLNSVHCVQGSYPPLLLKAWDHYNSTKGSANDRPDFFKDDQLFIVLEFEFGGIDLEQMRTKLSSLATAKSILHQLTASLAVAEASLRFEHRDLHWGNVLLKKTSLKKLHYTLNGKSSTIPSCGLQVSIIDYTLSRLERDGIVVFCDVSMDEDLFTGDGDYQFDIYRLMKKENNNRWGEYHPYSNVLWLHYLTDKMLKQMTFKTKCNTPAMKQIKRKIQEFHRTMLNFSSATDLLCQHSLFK

[7] = target: panel of more than 300 wild-type and mutant kinases (313 kinase panel) (Homo sapiens, UniProt P31751)
[8] = target: T3, panel of more than 300 wild-type and mutant kinases (313 kinase panel) (Homo sapiens, UniProt Q8TD19)
T3 sequence (Q8TD19 1-979): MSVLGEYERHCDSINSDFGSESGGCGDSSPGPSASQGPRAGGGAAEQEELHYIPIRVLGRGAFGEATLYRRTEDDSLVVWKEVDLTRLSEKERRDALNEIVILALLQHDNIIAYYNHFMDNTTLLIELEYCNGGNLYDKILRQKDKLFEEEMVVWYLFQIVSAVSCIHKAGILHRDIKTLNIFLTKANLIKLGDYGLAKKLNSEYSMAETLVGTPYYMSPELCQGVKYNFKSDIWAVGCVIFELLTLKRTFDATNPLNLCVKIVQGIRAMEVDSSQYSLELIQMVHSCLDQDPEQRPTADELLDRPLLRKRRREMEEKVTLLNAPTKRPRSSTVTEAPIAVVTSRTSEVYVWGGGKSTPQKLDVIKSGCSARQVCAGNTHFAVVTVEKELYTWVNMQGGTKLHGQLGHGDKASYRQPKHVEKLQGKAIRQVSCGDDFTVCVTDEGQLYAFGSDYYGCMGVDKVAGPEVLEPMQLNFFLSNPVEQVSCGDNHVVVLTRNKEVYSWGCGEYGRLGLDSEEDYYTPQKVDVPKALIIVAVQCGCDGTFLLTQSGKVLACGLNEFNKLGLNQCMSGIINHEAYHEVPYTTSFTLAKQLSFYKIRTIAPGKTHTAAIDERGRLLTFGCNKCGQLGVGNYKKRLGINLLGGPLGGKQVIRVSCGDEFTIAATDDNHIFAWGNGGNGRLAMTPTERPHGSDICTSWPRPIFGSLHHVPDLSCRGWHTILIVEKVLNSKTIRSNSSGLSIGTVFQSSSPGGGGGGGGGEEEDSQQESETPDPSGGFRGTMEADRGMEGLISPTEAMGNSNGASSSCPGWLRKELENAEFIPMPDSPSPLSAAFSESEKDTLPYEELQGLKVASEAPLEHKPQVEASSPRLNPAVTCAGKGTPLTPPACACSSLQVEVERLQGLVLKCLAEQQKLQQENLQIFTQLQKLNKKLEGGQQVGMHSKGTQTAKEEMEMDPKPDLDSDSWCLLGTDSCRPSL

[9] = kinase MAP2K3, compound at 1 μM

Sequence of panel of more than 300 wild-type and mutant kinases (313 kinase panel) (Homo sapiens, UniProt Q96SB4) (Q96SB4 whole entry, change not shown): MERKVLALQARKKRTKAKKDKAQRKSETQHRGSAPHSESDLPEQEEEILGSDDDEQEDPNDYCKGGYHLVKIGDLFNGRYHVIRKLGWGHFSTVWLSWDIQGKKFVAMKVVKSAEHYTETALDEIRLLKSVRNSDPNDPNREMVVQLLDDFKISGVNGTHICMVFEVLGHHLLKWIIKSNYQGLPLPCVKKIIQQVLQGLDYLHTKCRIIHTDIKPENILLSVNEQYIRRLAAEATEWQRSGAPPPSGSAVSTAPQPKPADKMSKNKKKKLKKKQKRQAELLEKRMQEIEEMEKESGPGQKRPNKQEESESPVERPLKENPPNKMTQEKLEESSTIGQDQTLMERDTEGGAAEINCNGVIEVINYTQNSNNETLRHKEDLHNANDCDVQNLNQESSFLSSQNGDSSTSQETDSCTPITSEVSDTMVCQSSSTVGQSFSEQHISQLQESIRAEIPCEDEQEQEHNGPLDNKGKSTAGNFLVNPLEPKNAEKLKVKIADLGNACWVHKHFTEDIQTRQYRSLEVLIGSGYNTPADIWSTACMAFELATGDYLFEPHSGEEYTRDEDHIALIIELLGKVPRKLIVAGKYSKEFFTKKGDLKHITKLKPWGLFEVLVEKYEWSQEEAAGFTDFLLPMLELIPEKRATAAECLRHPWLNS
Sequence of panel of more than 300 wild-type and mutant kinases (313 kinase panel) (Homo sapiens, UniProt Q02763) (Q02763 23-1124, change not shown): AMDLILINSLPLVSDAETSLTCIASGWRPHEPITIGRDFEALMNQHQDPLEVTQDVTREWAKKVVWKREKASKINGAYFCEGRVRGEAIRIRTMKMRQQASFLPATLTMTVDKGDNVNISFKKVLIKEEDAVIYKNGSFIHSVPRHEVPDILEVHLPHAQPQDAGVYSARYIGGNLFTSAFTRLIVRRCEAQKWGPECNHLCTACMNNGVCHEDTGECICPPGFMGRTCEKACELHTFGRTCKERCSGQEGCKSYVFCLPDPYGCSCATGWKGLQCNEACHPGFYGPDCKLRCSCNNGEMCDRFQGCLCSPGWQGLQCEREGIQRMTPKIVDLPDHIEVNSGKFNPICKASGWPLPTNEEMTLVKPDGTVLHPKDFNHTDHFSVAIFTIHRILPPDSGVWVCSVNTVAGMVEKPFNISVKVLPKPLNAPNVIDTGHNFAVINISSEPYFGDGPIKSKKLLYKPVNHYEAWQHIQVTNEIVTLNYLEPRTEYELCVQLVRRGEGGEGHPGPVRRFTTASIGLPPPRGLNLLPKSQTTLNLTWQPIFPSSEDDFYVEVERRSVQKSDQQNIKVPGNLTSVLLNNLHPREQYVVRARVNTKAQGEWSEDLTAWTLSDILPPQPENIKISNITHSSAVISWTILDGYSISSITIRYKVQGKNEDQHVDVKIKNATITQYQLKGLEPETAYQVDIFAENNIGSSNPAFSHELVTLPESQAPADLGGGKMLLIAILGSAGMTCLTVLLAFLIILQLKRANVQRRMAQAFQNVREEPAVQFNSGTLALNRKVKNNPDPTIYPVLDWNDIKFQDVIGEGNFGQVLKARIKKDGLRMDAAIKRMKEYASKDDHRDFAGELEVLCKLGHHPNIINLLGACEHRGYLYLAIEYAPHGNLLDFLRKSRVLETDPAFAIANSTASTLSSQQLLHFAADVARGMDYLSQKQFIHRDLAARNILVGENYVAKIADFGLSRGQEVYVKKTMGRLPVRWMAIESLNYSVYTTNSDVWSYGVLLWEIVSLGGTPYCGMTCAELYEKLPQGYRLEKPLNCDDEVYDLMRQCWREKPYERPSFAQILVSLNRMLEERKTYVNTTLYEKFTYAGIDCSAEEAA
Sequence of panel of more than 300 wild-type and mutant kinases (313 kinase panel) (Homo sapiens, UniProt P31751) (P31751 whole entry, change not shown): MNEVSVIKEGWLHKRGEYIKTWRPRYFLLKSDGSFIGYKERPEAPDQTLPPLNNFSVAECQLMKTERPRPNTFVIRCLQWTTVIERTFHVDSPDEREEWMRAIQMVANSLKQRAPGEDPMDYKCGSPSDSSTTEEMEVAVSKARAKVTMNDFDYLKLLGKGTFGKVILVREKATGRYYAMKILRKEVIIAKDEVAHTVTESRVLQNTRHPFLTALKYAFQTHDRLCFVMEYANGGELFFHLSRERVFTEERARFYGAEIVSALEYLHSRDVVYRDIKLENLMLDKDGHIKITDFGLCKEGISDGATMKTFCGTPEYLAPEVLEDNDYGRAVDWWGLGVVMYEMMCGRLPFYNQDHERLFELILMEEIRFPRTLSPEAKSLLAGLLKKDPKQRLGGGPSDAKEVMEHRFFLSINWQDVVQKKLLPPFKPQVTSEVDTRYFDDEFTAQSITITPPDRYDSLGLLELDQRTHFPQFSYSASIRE
Sequence of panel of more than 300 wild-type and mutant kinases (313 kinase panel) (Homo sapiens, UniProt P10721, V654A) (P10721 26-976 V654A): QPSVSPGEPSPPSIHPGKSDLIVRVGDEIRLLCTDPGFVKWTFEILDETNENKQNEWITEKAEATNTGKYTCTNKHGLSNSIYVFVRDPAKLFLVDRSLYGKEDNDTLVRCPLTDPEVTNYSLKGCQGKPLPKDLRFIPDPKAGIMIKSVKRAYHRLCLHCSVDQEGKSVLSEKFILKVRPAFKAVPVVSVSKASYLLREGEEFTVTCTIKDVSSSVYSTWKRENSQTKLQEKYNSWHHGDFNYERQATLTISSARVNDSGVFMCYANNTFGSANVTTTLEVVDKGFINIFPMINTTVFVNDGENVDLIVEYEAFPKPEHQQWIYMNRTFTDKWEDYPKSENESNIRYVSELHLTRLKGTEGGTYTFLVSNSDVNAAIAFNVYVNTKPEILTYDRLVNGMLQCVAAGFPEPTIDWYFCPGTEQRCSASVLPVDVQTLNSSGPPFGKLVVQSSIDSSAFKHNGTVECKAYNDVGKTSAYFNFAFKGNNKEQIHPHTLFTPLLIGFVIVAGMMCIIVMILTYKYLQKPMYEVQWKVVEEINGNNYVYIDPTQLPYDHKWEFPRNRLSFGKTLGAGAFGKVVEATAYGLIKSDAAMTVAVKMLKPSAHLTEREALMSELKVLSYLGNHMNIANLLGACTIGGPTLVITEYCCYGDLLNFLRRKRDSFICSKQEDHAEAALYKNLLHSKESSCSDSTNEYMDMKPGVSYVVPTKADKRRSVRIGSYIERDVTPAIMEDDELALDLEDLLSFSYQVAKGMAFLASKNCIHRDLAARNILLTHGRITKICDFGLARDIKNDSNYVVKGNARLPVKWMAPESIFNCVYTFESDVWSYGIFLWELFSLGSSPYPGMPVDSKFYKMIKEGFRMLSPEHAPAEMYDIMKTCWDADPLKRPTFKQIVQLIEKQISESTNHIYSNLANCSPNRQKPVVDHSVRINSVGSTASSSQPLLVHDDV

| Structure (SMILES) | %-inhibition of MAP2K3 [1, 9] [%] | %-inhibition of KIT(V654A) [2] [%] | %-inhibition of MET ([3]; kinase MET, compound at 1 μM) [%] | %-inhibition of TIE2 [4] [%] | %-inhibition of SRPK1 [5] [%] | %-inhibition of Haspin [6] [%] | %-inhibition, AKT2 ([7]; kinase AKT2, 1 μM compound) [%] | %-inhibition of NEK9 ([8]; kinase NEK9, 1 μM) [%] | %-inhibition of MET ([3]; 1 µM) [%] | %-inhibition of MAP2K3 ([1]; 1 µM) [%] | %-inhibition, AKT2 ([7]; 1 µM) [%] | %-inhibition of NEK9 ([8]; 1 µM) [%] |
| --- | --- | --- | --- | --- | --- | --- | --- | --- | --- | --- | --- | --- |
| CO[C@H]1C[C@@H]2CC[C@@H](C)[C@@](O)(O2)C(=O)C(=O)N2CCCC[C@H]2C(=O)O[C@H]([C@H](C)C[C@@H]2CC[C@@H](OC(=O)C(C)(CO)CO)[C@H](OC)C2)CC(=O)[C@H](C)/C=C(\C)[C@@H](O)[C@@H](OC)C(=O)[C@H](C)C[C@H](C)/C=C/C=C/C=C/1C [temsirolimus] | 10 | -4.65 | -4.57 | -8 | 6 | 3 | -1.77 | -8 |  |  |  |  |
| CNC(=O)c1cc(Oc2ccc(NC(=O)Nc3ccc(Cl)c(C(F)(F)F)c3)c(F)c2)ccn1 [regorafenib] | 90 |  | 2.12 | 47 | 27 | -8 | -4 | 2.52 |  |  |  |  |
| CO[C@H]1C[C@@H]2CC[C@@H](C)[C@@](O)(O2)C(=O)C(=O)N2CCCC[C@H]2C(=O)O[C@H]([C@H](C)C[C@@H]2CC[C@@H](OCCO)[C@H](OC)C2)CC(=O)[C@H](C)/C=C(\C)[C@@H](O)[C@@H](OC)C(=O)[C@H](C)C[C@H](C)/C=C/C=C/C=C/1C [everolimus] | 10 | -3.52 | -4 | -3.66 | 1.69 | -0.358 | -3.78 | -11 |  |  |  |  |
| COc1cc2nccc(Oc3ccc(NC(=O)C4(C(=O)Nc5ccc(F)cc5)CC4)cc3)c2cc1OC [cabozantinib] | 72 | 97 |  | 90 | 37 | 8 | -3.78 | 1.26 |  |  |  |  |
| Cc1nc(Nc2ncc(C(=O)Nc3c(C)cccc3Cl)s2)cc(N2CCN(CCO)CC2)n1 [dasatinib] | 35 |  |  |  | -2.17 | -13 |  |  |  |  |  |  |
| COc1cc2c(Nc3ccc(Br)cc3F)ncnc2cc1OCC1CCN(C)CC1 [vandetanib] | 16 |  |  | 85 | 3 | -3.76 | -1.77 | -7 |  |  |  |  |
| CC(C)(C)c1nc(-c2cccc(NS(=O)(=O)c3c(F)cccc3F)c2F)c(-c2ccnc(N)n2)s1 [dabrafenib] | 11 | -3.17 | 27 | 81 |  | 9 |  | 101 |  |  |  |  |
| Cc1ccc(Nc2nccc(N(C)c3ccc4c(C)n(C)nc4c3)n2)cc1S(N)(=O)=O [pazopanib] | 47 | 87 |  | 26 | 8 | -0.746 | -2 | 3.59 |  |  |  |  |
| N#CC[C@H](C1CCCC1)n1cc(-c2ncnc3[nH]ccc23)cn1 [ruxolitinib] | 27 | -10 |  | 3 | 2.4 | -6.62 | -3.68 | 8 | -3.54 |  |  |  |
| C[C@@H](Oc1cc(-c2cnn(C3CCNCC3)c2)cnc1N)c1c(Cl)ccc(F)c1Cl [crizotinib] | 12 | -3.75 |  |  | 4.55 | 7 | -2.67 | 57 |  |  |  |  |
| CCCS(=O)(=O)Nc1ccc(F)c(C(=O)c2c[nH]c3ncc(-c4ccc(Cl)cc4)cc23)c1F [vemurafenib] | 34 | -1.8 | 3.67 | -2.42 | 2 | -3 | -3 | -2.2 |  |  |  |  |
| CS(=O)(=O)CCNCc1ccc(-c2ccc3ncnc(Nc4ccc(OCc5cccc(F)c5)c(Cl)c4)c3c2)o1 [lapatinib] | 13 |  | 0 | 2.14 | 0.333 | 3.3 | 4.61 |  |  |  |  |  |
| COc1cc(Nc2c(C#N)cnc3cc(OCCCN4CCN(C)CC4)c(OC)cc23)c(Cl)cc1Cl [bosutinib] |  | 8 | 10 | 22 |  |  |  |  |  | 34 | -2.57 | -4.25 |
| CCN(CC)CCNC(=O)c1c(C)[nH]c(/C=C2\C(=O)Nc3ccc(F)cc32)c1C [sunitinib] |  |  |  |  | 5 |  |  |  |  |  |  |  |
| Cc1ccc(C(=O)Nc2ccc(CN3CCN(C)CC3)c(C(F)(F)F)c2)cc1C#Cc1cnc2cccnn12 [ponatinib] |  |  | 17 | 101 |  |  |  | 17 |  |  |  |  |
